Patent US20130289108A1, “Palladium-Copper Catalysts for the Homogeneous Selective Oxidation of Thiol Groups” (priority 2011, published 2013)
Marks after values point to notes of the source that are not given here.

Test system: male rats with cytopenia
Assay: Hemostimulating activity: general analysis of the blood of male rats with cyclophosphan cytopenia
Type: in vivo
[1] = 3 days after cyclophosphan 120 mg/kg
[2] = 7 days after cyclophosphan 120 mg/kg
[3] = 14 days after cyclophosphan 120 mg/kg

O=C([O-])[O-].[Li+].[Li+] [preparation 3, lithium carbonate]
Erythrocytes [1]: 3.4 ± 0.29 10^12/l
Leucocytes [1]: 3.22 ± 0.11* 10^9/l
Lymphocytes [1]: 49.7 ± 1.6 %
Reticulocytes [1]: 1.1 ± 0.1%
Segmented neutrophils [1]: 31 ± 1.7 %
Erythrocytes [2]: 3.4 ± 0.29 10^12/l
Leucocytes [2]: 3.22 ± 0.11* 10^9/l
Lymphocytes [2]: 49.7 ± 1.6 %
Reticulocytes [2]: 1.1 ± 0.1%
Segmented neutrophils [2]: 31 ± 1.7 %
Erythrocytes [3]: 4.7 ± 0.27 10^12/l
Leucocytes [3]: 5.2 ± 0.26** 10^9/l
Lymphocytes [3]: 70.3 ± 0.9%
Reticulocytes [3]: 1.3 ± 0.3%
Segmented neutrophils [3]: 15.0 ± 2.6 %

CC(=O)N[C@@H](CSSC[C@H](NC(C)=O)C(=O)O)C(=O)O [preparation 4, N-acetyl-L-cysteine disulfide]
Erythrocytes [1]: 3.2 ± 0.33 10^12/l
Leucocytes [1]: 3.47 ± 0.08* 10^9/l
Lymphocytes [1]: 52.5 ± 1.3 %
Segmented neutrophils [1]: 31 ± 1.8 %
Erythrocytes [2]: 3.2 ± 0.33 10^12/l
Leucocytes [2]: 3.47 ± 0.08* 10^9/l
Lymphocytes [2]: 52.5 ± 1.3 %
Segmented neutrophils [2]: 31 ± 1.8 %
Erythrocytes [3]: 4.1 ± 0.21 10^12/l
Leucocytes [3]: 5.1 ± 0.22** 10^9/l
Lymphocytes [3]: 71.0 ± 1.6%
Reticulocytes [3]: 1.2 ± 0.4%
Segmented neutrophils [3]: 13.6 ± 1.9 %
